# Data from US20240269129A1, “GLYCOGEN SYNTHASE KINASE 3 (GSK3) INHIBITORS FOR TREATING CTNNB1 SYNDROME” (Trustees of Tufts College, priority 2021, published 2024).
# Entries after “also recorded” stand apart in the source; their conditions may differ.
# Experiments:
# GSK3β = GSK3β (Homo sapiens, UniProt P49841); assay: GSK3β inhibition, motility-shift microfluidic assay (Caliper) at Km of ATP; type: biochemical; details: for IC50: at Km of ATP
# Protocol: (§1) FIG. 12. Design and characterization of first paralog selective inhibitors of GSK3α and GSK3β. (a) General synthetic scheme for synthesis of the pyrazolo-tetrahydroquinolinone scaffold. (b) IC50 GSK3α and GSK3β values for inhibition were determined at Km of ATP in a motility-shift microfluidic assay (Caliper, MA) measuring phosphorylation of a synthetic substrate. Values are average of three or more experiments. Data are shown as IC50 values in μM±standard deviation. Compounds were tested in duplicate in a 12-point dose curve with 3-fold dilution starting at 33.3 μM. […] Each inhibitor was screened against 311 kinases at a 10 μM concentration. Kinases with >50% inhibition are depicted (percentage inhibition proportional to size of red dot).
# Structure-based design has been aimed towards maximizing steric requirement at the R position and the corresponding differences within the selectivity pockets of GSK3α and GSK3β. […] These modifications and increased binding affinities were tolerant of simple substitutions on the phenyl ring (cf. BRD0320).
# [1] = system: β-catenin heterozygous mice; assay: Contextual fear conditioning (learning) in β-catenin heterozygous mice; type: in vivo, mouse; details: 30 mg/kg doses, young adult βcatHet mice
# Protocol: FIG. 2. […] Classic spatial learning task that pairs association of a particular context with a mild foot shock; freezing in the context is measured as an indicator of learning; n=26 control, 24 BcatHet; p<0.0001 Repeated Measure ANOVA; **p<0.01, ***p<0.001 multiple comparison t-test.
# (§2) Drug treatments using small molecule GSK3α and GSK3β inhibitors were tested in vivo, for safe and effective amelioration of the phenotypes by assaying β-catenin protein levels, learning and motor skills effects of drug vs. vehicle on CTNNB1 heterozygote mice and control littermates. In an example, a study includes administering the small molecule GSK3 inhibitor in sequential daily doses to the βcatHet mice. The daily doses can be administered, for example, for five days, or four days, or any other number of days. At some time after the last dose, such as 1 hour, the grip strength test can be administered. Additionally, the contextual fear conditioning can be performed. Sometime later, such as 1 day later, the contextual fear conditioning tests can be performed.
# (§3) Mice were administered 30 mg/kg doses of the respective compounds in the present Example. Samples of the brain and muscle from control mice, βcatHet mice (untreated), and βcatHet mice (treated) were tested for levels of β-catenin.
# [2] = system: β-catenin heterozygous mice; assay: Muscle grip strength test in β-catenin heterozygous mice; type: in vivo, mouse; details: 30 mg/kg doses, young adult βcatHet mice
# Protocol: as §2, §3
# β-catenin protein levels = β-catenin protein levels in brain and skeletal muscle of treated β-catenin heterozygous mice, quantitative immunoblotting; type: in vivo, mouse; details: 30 mg/kg doses, young adult βcatHet mice
# Protocol: as §2, §3
# GSK3α = GSK3α (Homo sapiens, UniProt P49840); assay: GSK3α inhibition, motility-shift microfluidic assay (Caliper) at Km of ATP; type: biochemical
# GSK3α, sequence (P49840 whole entry): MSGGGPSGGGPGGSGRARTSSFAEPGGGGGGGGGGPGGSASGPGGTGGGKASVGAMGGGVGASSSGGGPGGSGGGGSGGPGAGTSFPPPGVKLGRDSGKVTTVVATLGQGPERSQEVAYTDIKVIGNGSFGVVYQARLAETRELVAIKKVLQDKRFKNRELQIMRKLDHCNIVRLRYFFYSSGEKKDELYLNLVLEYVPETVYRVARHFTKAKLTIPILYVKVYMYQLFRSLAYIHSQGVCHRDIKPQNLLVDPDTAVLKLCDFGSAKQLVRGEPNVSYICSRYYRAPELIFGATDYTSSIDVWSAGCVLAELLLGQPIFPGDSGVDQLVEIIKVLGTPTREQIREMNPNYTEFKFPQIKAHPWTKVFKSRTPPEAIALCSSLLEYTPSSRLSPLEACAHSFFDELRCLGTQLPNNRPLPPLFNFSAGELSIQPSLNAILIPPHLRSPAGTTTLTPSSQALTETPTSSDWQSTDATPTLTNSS
# Protocol: as §1, with “Design and characterization of first paralog selective inhibitors of GSK3α and GSK3β.” left out, “concentration.” for “concentration. Kinases with >50% inhibition are depicted (percentage inhibition proportional to size of red dot).”
# [3] = system: CTNNB1 heterozygous iPSCs; assay: β-catenin and DKK1 protein levels in CTNNB1 heterozygous iPSCs, pilot dose-response, quantitative immunoblotting; type: cell-based, human
# Description: FIG. 14. FIG. 1. GSK3α,β inhibitors increase β-cat protein levels in (a) human CTNNB1 heterozygous glutamatergic neurons treated with BRD0320, relative to vehicle-treated het neurons, and (b) CTNNB1 het iPSCs treated with BRD0320 and LY2090314 at the indicated concentrations. Wnt target, DKK1 protein levels show similar increases to β-cat. Histograms showing comparison to (a) WT neuron levels set as 1 and (b) vehicle-treated het iPSC levels set as 1. LY2090314 increases β-cat protein levels at 10× lower concentration relative to BRD0320.
# A human pluripotent stem cell line (iPSC) that lacks any pathogenic variants was made heterozygous for CTNNB1 via CRISPR-Cas9 gene editing of one allele. A premature termination (PTC+1) frameshift was introduced based on a CTNNB1 syndrome patient mutation. Haploinsufficiency was confirmed. The iPSCs were differentiated to cortical glutamatergic neurons by transfection with the transcription factor human neurogenin 2. […] As shown in FIG. 14 (a), beta-catenin protein levels were measured 24 hrs later by quantitative immunoblotting in the GSK3 inhibitor treated CTNNB1 heterozygous neurons, relative to vehicle-treated heterozygous neurons and wildtype neurons.
# Beta-catenin protein levels were measured 24 hrs later by quantitative immunoblotting in the GSK3 inhibitor treated CTNNB1 heterozygous iPSCs, relative to vehicle-treated heterozygous iPSCs.
# GSK3β, sequence (P49841 whole entry): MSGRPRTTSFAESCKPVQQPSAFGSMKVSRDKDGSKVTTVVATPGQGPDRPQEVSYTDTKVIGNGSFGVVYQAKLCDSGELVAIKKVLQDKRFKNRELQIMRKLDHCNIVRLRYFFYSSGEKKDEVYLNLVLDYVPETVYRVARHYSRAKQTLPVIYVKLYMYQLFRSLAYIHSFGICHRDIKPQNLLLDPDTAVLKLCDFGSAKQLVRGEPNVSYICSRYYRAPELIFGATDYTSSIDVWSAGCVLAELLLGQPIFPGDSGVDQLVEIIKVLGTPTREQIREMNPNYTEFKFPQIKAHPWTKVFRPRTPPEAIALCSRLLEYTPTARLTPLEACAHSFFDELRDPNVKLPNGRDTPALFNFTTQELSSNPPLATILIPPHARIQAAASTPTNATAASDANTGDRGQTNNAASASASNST
SMILES,IC50 (GSK3β) [nM],learning (contextual fear conditioning) [1],muscle grip strength [2],further results
CC[C@@]1(c2ccccc2)C2=C(CC(C)(C)CC2=O)Nc2[nH]ncc21 [BRD0705],515,did not display a significant trend to improvements; also recorded: slight trend (not significant) toward improvements,did not display a significant trend to improvements; also recorded: slight trend (not significant) toward improvements,–
CC(C)(C)Cc1[nH]nc2c1[C@](C)(c1ccccc1)C1=C(CC(C)(C)CC1=O)N2 [BRD3731],15,slight significant improvement,significant increase; also recorded: trend toward improvement,selectivity for GSK3β (GSK3β): 14 fold; β-catenin protein levels in β-catenin heterozygous mouse brain and skeletal muscle relative to vehicle treated heterozygote (β-catenin protein levels): significantly increased; IC50 (GSK3α; at Km of ATP): 215 nM
CC1(C)CC(=O)C2=C(C1)Nc1n[nH]c(C3CC3)c1[C@]2(C)c1ccccc1 [BRD0209],–,–,–,potency for the two paralogs GSK3α and GSK3β (GSK3α): Equipotency
"O=C1NC(=O)C(c2cnc3ccccn23)=C1c1cn2c3c(cc(F)cc13)CN(C(=O)N1CCCCC1)CC2 [LY2090314, 3-(9-fluoro-2-(piperidine-1-carbonyl)-1,2,3,4-tetrahydro-[1,4]diazepino[6,7,1-hi]indol-7-yl)-4-(imidazo[1,2-a]pyridin-3-yl)-1H-pyrrole-2,5-dione]",–,–,–,"β-cat protein levels in CTNNB1 het iPSCs relative to vehicle-treated het iPSCs ([3]; BRD0320 10 μM, 30 μM, LY2090314 0.1 μM, 0.3 μM, 24 hrs): increase; concentration that increases β-cat protein levels, relative to BRD0320 ([3]; CTNNB1 het iPSCs): 10 × lower"
